Assay results taken from patent US7351731B2, “Azole derivatives and methods for making the same” (Board of Governors for Higher Education, State of Rhode …, priority 2005, dated 2008).
≈ marks a conversion by molar mass, not a printed value.

What was measured:
C. albicans ATCC 14053 [1] = test: MIC microdilution susceptibility testing, C. albicans in RPMI; assay type: cell-based, Candida albicans; conditions: for MIC: Candida albicans
Protocol: (§1) Microorganisnis. […] Stock cultures were kept on Sabouraud dextrose agar (SDA; Becton-Dickinson and Co., Sparks, Md.). Subcultures were prepared on SDA at 35-37° C. Suspension cultures were prepared by inoculation of single colonies in 7 ml of normal saline solution.
(§2) Test compounds were dissolved in DMSO (0.56 mg/ml) and stored at 0° C. Working dilutions were made in RPMI or SDB medium. […] The final maximum concentration of DMSO in the assays was 5% (v/v).
(§3) Microdilutions for control experiments with C. albicans, A. niger, and C. neoformans were the modified method of National Committee for Clinical Laboratory Standards (NCCLS) method as described by Galgiani and by the more recent NCCLS M27-A microdilution methods as described previously. Galgiani, J. N. Antimicrob. Agents Chemother. […] Reference method for broth dilution antifungal susceptibility testing for yeasts. Approval standard. […] 9; C. arballeira, N. M., et al. Arch. Pharm.-Pharm. […] Dilutions were prepared in 0.1 ml of RPMI or SDB; the inocula were either 10^4 C. albicans or C. neoformans cells or A. niger spores. The tubes were incubated for 24-48 h at 36±1° C., and turbidity was read visually.

C. albicans ATCC 14053 [2] = test: MIC microdilution susceptibility testing, C. albicans in SDB; assay type: cell-based, Candida albicans; conditions: 24-48 h, average of three experiments; for MIC: Candida albicans
Protocol: as §1, §2, §3

C. neoformans ATCC 66031 = test: MIC microdilution susceptibility testing, C. neoformans in SDB; assay type: cell-based, Cryptococcus neoformans; conditions: SDB medium, 35-37° C., 24-48 h, average of three experiments; for MIC: Cryptococcus neoformans, ATCC66031
Protocol: as §1, §2, §3

A. niger ATCC 16404 = test: MIC microdilution susceptibility testing, A. niger in SDB; assay type: cell-based, Aspergillus niger; conditions: SDB medium, 35-37° C., 24-48 h, average of three experiments; for MIC: Aspergillus niger, ATCC16404
Protocol: as §1, §2, §3

[3] = ATCC14053, pH 6.9, read-out: MIC C. albicans ATCC 14053, RPMI
[4] = ATCC14053, SDB medium pH 5.6, 35-37° C.
[5] = ATCC14053, RPMI medium pH 6.9, 35-37° C., 24-48 h, average of three experiments, read-out: MIC C. albicans ATCC 14053, RPMI
[6] = ATCC14053, pH 5.6, SDB medium pH 5.6, 35-37° C.
[7] = RPMI medium pH 6.9, 35-37° C., 24-48 h, average of three experiments

Compound	MIC (C. albicans ATCC 14053 [1]; [3])	MIC (C. albicans ATCC 14053 [2]; [4])	MIC (C. neoformans ATCC 66031)	MIC (A. niger ATCC 16404)	MIC (C. albicans ATCC 14053 [1]; [5])	MIC (C. albicans ATCC 14053 [2]; [6])	MIC C. albicans ATCC 14053, RPMI (C. albicans ATCC 14053 [1]; [7])	MIC C. albicans ATCC 14053, SDB (C. albicans ATCC 14053 [2]; SDB medium pH 5.6, 35-37° C.)	MIC A. niger ATCC 16404, SDB (A. niger ATCC 16404)	MIC C. neoformans ATCC 66031, SDB (C. neoformans ATCC 66031)
CCC(Br)C(=O)O (stereo not shown) [2-Bromobutyric acid, reference compound]	513 µg/mL (≈ 3070 µM)	> 513 µg/mL	> 513 µg/mL							
CCCCC(Br)C(=O)O (stereo not shown) [2-Bromohexanoic acid, reference compound]	≥ 710 µg/mL	710 µg/mL (≈ 3640 µM)	355 µg/mL (≈ 1820 µM)	710 µg/mL (≈ 3640 µM)						
CCCCCCCCCCC(Br)C(=O)O (stereo not shown) [2-Bromolauric acid, reference compound]			19 µg/mL (≈ 68 µM)	78 µg/mL (≈ 279 µM)	155 µg/mL (≈ 555 µM)	155 µg/mL (≈ 555 µM)				
CCCCCCCCCCCCC(Br)C(=O)O (stereo not shown) [2-Bromomyristic acid, reference compound]			15 µg/mL (≈ 48.8 µM)	68 µg/mL (≈ 221 µM)	12 µg/mL (≈ 39.1 µM)	> 540 µg/mL				
CC(Br)C(=O)Cl (stereo not shown) [2-Bromopropionyl chloride, reference compound]			117 µg/mL	468 µg/mL	468 µg/mL	468 µg/mL				
CCCC(Br)C(=O)O (stereo not shown) [2-Bromovaleric acid, reference compound]			290 µg/mL (≈ 1600 µM)	≥ 578 µg/mL	≥ 578 µg/mL	578 µg/mL (≈ 3190 µM)				
OCCCCCCCCCCCBr [11-Bromoundecanol, reference compound]			12 µg/mL (≈ 47.8 µM)	24 µg/mL (≈ 95.5 µM)		95 µg/mL (≈ 378 µM)				
C[C@@H]1[C@H](O)[C@@H](C)/C=C/C=C/C=C/C=C/C=C/C=C/C=C/[C@H](O[C@@H]2O[C@H](C)[C@@H](O)[C@H](N)[C@@H]2O)C[C@@H]2O[C@](O)(C[C@@H](O)C[C@@H](O)[C@H](O)CC[C@@H](O)C[C@@H](O)CC(=O)O[C@H]1C)C[C@H](O)[C@H]2C(=O)O [AMB, amphotericin B, reference compound]							0.7 µg/mL (≈ 0.758 µM)	1.5 µg/mL (≈ 1.62 µM)	0.4 µg/mL (≈ 0.433 µM)	
CC(=O)O [Acetic acid, reference compound]			≥ 220 µg/mL	≥ 220 µg/mL	≥ 220 µg/mL	≥ 220 µg/mL				
Fc1ccc(C(Br)(Cn2cncn2)Cn2cncn2)c(F)c1 [Br]			22 µg/mL (≈ 59.6 µM)	701 µg/mL (≈ 1900 µM)	701 µg/mL (≈ 1900 µM)	> 701 µg/mL				
Fc1ccc(C(Cl)(Cn2cncn2)Cn2cncn2)c(F)c1 [Cl]			28 µg/mL (≈ 86.2 µM)	883 µg/mL (≈ 2720 µM)	1140 µg/mL (≈ 3500 µM)	> 883 µg/mL				
CCCCCCCCCCCO [Compound 1-Undecanol, 1-Undecanol, reference compound]			28 µg/mL (≈ 162 µM)	87 µg/mL (≈ 505 µM)		87 µg/mL (≈ 505 µM)				
CC(=O)OC(Cn1cncn1)(Cn1cncn1)c1ccc(F)cc1F [Compound 1a, O-Acetylfluconazole]							>1,420 μg/mL	1,420 μg/mL	≧1,420 μg/mL	>1,420 μg/mL
CCCCCCCCCCCCCC(=O)OC(Cn1cncn1)(Cn1cncn1)c1ccc(F)cc1F [Compound 1b, O-Tetradecanoylfluconazole]							718 µg/mL (≈ 1390 µM)	718 µg/mL (≈ 1390 µM)	≧718 μg/mL	718 µg/mL (≈ 1390 µM)
CC(Br)C(=O)OC(Cn1cncn1)(Cn1cncn1)c1ccc(F)cc1F (stereo not shown) [Compound 1c, O-2-Bromopropionylfluconazole]							656 µg/mL (≈ 1490 µM)	656 µg/mL (≈ 1490 µM)	>656 µg/mL	656 µg/mL (≈ 1490 µM)
CCC(Br)C(=O)OC(Cn1cncn1)(Cn1cncn1)c1ccc(F)cc1F (stereo not shown) [Compound 1d, O-2-Bromobutyrylfluconazole]							319 µg/mL (≈ 701 µM)	636 µg/mL (≈ 1400 µM)	≧1,276 μg/mL	>1,276 μg/mL
CCCC(Br)C(=O)OC(Cn1cncn1)(Cn1cncn1)c1ccc(F)cc1F (stereo not shown) [Compound 1e, O-2-Bromovaleroylfluconazole]							275 µg/mL (≈ 586 µM)	552 µg/mL (≈ 1180 µM)	≧1,100 μg/mL	1,100 μg/mL
